Data as given in the NIST ThermoML archive (doi:10.1021/acs.jced.8b00966).
Numbers after ± are expanded uncertainties.

Conditions: Liquid, Ebulliometric method (Recirculating still)

SMILES: CC1(C)COC1 [3,3-dimethyloxetane]
- vapor or sublimation pressure (352.8 K): 101.3 ± 3 kPa

SMILES: CC(C)(CO)CCl [3-chloro-2,2-dimethyl-1-propanol]
- vapor or sublimation pressure (439.15 K): 101.3 ± 3 kPa

SMILES: CC1CCCCC1 [methylcyclohexane]
- vapor or sublimation pressure (373.35 K): 101.3 ± 3 kPa
